{
  "source": "patent US20250270619A1",
  "about": "“COMPOSITIONS, KITS AND METHODS FOR DIRECT AMPLIFICATION FROM CRUDE BIOLOGICAL SAMPLES” (LIFE TECHNOLOGIES CORPORATION, priority 2021, published 2025)",
  "test_system": "SARS-Cov-2 virus particles",
  "assay": "RT-qPCR screening of surfactant treatment solutions for disruption of SARS-CoV-2 virus particles",
  "conditions": "for effect of heating the virus-surfactant mixture on Cq values (compatibility with RT-qPCR): then 92° C. for 5 minutes",
  "key": {"[1]": {"conditions": "Example 1, 2X concentration per surfactant, 30 minutes ambient, without heating"}, "[2]": {"conditions": "Example 2, surfactant 0.02-0.08%, absence of a heating step"}},
  "data": [
    {"molecule": "C[C@H](CCC(=O)NCCC[N+](C)(C)CC(O)CS(=O)(=O)[O-])[C@H]1CC[C@H]2[C@@H]3[C@H](O)C[C@@H]4C[C@H](O)CC[C@]4(C)[C@H]3C[C@H](O)[C@]12C", "note": "(stereo partly drawn) [CHAPSO, 3-[(3-cholamidopropyl)dimethylammonio]-2-hydroxy-1-propanesulfonate]", "values": [
      {"measurement": "disruption of virus particles (Cq vs virus in Tris-EDTA buffer)", "setting": "[1]", "value": "ineffective at disrupting the virus particles"},
      {"measurement": "effect of heating the virus-surfactant mixture on Cq values (compatibility with RT-qPCR)", "setting": "Example 1, 30 minutes ambient", "value": "compatible with RT-qPCR"}
    ]},
    {"molecule": "CCCCCCCCCC[N+](C)(C)CCCCCCCCCC.[Br-]", "note": "[DDAB, Didecyldimethylammonium bromide]", "values": [
      {"measurement": "disruption of virus particles (Cq vs virus in Tris-EDTA buffer)", "setting": "[1]", "value": "effective at disrupting the virus particles"},
      {"measurement": "effect of heating the virus-surfactant mixture on Cq values (compatibility with RT-qPCR)", "setting": "Example 1, 30 minutes ambient", "value": "higher average Cq values"}
    ]},
    {"molecule": "CCCCCCCCCC[N+](C)(C)C.[Br-]", "note": "[DeTAB]", "values": [
      {"measurement": "effect of heating the virus-surfactant mixture on Cq values (compatibility with RT-qPCR)", "setting": "Example 1, 30 minutes ambient", "value": "compatible with RT-qPCR"}
    ]},
    {"molecule": "CCCCCCCCCCCC[N+](C)(C)C.[Br-]", "note": "[DoTAB]", "values": [
      {"measurement": "disruption of virus particles (Cq vs virus in Tris-EDTA buffer)", "setting": "[1]", "value": "ineffective at disrupting the virus particles"}
    ]},
    {"molecule": "CCCCCCCCCCCC[N+](C)(C)CC.[Br-]", "note": "[EDMAB, Dodecylethyldimethylammonium bromide]", "values": [
      {"measurement": "disruption of virus particles (Cq vs virus in Tris-EDTA buffer)", "setting": "[1]", "value": "ineffective at disrupting the virus particles"},
      {"measurement": "effect of heating the virus-surfactant mixture on Cq values (compatibility with RT-qPCR)", "setting": "Example 1, 30 minutes ambient", "value": "compatible with RT-qPCR"}
    ]},
    {"molecule": "CCCCCCCCCCCC[N+](C)(C)[O-]", "note": "[LDAO, N,N Dimethydodecylamine-N-oxide]", "values": [
      {"measurement": "disruption of virus particles (Cq vs virus in Tris-EDTA buffer)", "setting": "[1]", "value": "effective at disrupting the virus particles"},
      {"measurement": "disruption of virus particles (Cq vs virus in Tris-EDTA buffer)", "setting": "[2]", "value": "effective at disrupting the virus particles"},
      {"measurement": "virus disruption vs incubation time", "setting": "Example 3, 0.02% LDAO solution (2X), 0 to 60 minutes room temperature, no heating", "value": "rapidly disrupted the virus particles"}
    ]},
    {"molecule": "O=S(=O)([O-])CCC[n+]1ccccc1", "note": "[NDSB201]", "values": [
      {"measurement": "disruption of virus particles (Cq vs virus in Tris-EDTA buffer)", "setting": "[1]", "value": "ineffective at disrupting the virus particles"}
    ]},
    {"molecule": "CCCCCCCCCCCC(=O)OCCOCCOCCOCCOCCOCCOCCOCCOCCOCCOCCOCCOCCOCCOCCOCCOCCOCCOCCOCCOCC(OCCOCCOCCOCCOCCOCCOCCOCCOCCOCCOCCOCCOCCOCCOCCOCCOCCOCCOCCOCCO)C1OCC(OCCOCCOCCOCCOCCOCCOCCOCCOCCOCCOCCOCCOCCOCCOCCOCCOCCOCCOCCOCCO)C1OCCOCCOCCOCCOCCOCCOCCOCCOCCOCCOCCOCCOCCOCCOCCOCCOCCOCCOCCOCCO", "note": "(stereo not drawn) [Tween 20, polysorbate 20]", "values": [
      {"measurement": "disruption of virus particles (Cq vs virus in Tris-EDTA buffer)", "setting": "[1]", "value": "effective at disrupting the virus particles"}
    ]},
    {"molecule": "CCCCCCCC/C=C\\CCCCCCCC(=O)OCCOCC(OCCO)C1OCC(OCCO)C1OCCO", "note": "(stereo not drawn) [Tween 80]", "values": [
      {"measurement": "disruption of virus particles (Cq vs virus in Tris-EDTA buffer)", "setting": "[1]", "value": "ineffective at disrupting the virus particles"},
      {"measurement": "effect of heating the virus-surfactant mixture on Cq values (compatibility with RT-qPCR)", "setting": "Example 1, 30 minutes ambient", "value": "compatible with RT-qPCR"}
    ]},
    {"molecule": "CCCCCCCCCCCCCC[N+](C)(C)CCCS(=O)(=O)[O-]", "note": "[Zwittergent 3-14, n-Tetradecyl-N,N-dimethyl-3-ammonio-1-propanesulfonate]", "values": [
      {"measurement": "disruption of virus particles (Cq vs virus in Tris-EDTA buffer)", "setting": "[1]", "value": "effective at disrupting the virus particles"},
      {"measurement": "disruption of virus particles (Cq vs virus in Tris-EDTA buffer)", "setting": "[2]", "value": "effective at disrupting the virus particles"}
    ]},
    {"molecule": "Benzalkonium Chloride [BZK]", "values": [
      {"measurement": "disruption of virus particles (Cq vs virus in Tris-EDTA buffer)", "setting": "[1]", "value": "effective at disrupting the virus particles"},
      {"measurement": "effect on downstream RT-qPCR", "setting": "Example 2, surfactant 0.08%", "value": "inhibitory to downstream RT-qPCR"}
    ]},
    {"molecule": "N-(Alkyl C10-C16)-N,N-dimethylglycine betaine [Empigen BB]", "values": [
      {"measurement": "disruption of virus particles (Cq vs virus in Tris-EDTA buffer)", "setting": "[1]", "value": "effective at disrupting the virus particles"}
    ]},
    {"molecule": "nonyl phenoxypolyethoxylethanol [NP-40 alternative]", "values": [
      {"measurement": "disruption of virus particles (Cq vs virus in Tris-EDTA buffer)", "setting": "[1]", "value": "effective at disrupting the virus particles"}
    ]}
  ]
}
